ChEMBL document CHEMBL4219119, “Benzoxazin-4-ones as novel, easily accessible inhibitors for rhomboid proteases” (Bioorg Med Chem Lett, 2018)
The source made the active and inactive calls. No cut-off for these calls is given here.

Assays:
[1] = Competitive inhibition of Escherichia coli rhomboid GlpG preincubated for 30 mins followed by FP-Rh addition measured after 1 hr by gel-based ABPP method
[2] = biological target: T1, Rhomboid protease GluP (Bacillus subtilis (strain 168), UniProt P54493); assay: Competitive inhibition of Bacillus subtilis rhomboid YqgP preincubated for 30 mins followed by FP-Rh addition measured after 1 hr by gel-based ABPP method
T1 sequence (P54493 whole entry): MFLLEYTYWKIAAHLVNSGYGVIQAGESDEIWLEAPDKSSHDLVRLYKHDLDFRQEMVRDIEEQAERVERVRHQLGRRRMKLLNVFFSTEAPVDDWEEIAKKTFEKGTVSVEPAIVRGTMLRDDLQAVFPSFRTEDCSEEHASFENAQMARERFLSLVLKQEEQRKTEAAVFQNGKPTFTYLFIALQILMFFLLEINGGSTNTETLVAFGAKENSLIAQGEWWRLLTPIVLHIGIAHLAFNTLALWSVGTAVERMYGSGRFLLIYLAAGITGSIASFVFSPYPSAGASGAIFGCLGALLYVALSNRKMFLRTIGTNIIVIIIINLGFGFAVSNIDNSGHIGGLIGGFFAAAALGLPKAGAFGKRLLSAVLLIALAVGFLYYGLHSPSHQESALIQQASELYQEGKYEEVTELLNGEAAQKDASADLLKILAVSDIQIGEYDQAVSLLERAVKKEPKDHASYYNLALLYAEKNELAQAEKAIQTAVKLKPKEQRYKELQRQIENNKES

[3] = tested on: Escherichia coli; assay: (§1) Inhibition of rhomboid GlpG in Escherichia coli MC4100 outer membrane permeabilized mutant containing delta-lptD4213 preincubated for 15 mins followed by pPR61 (pD881-SR_MBP-LacYTM2-Trx) substrate addition measured after 4 hrs by fluorescence based Western blot
[4] = Inhibition of bovine trypsin using Z-GGR-AMC as substrate preincubated for 30 mins followed by substrate addition measured for 20 mins by fluorescence assay; design: species or system Bos taurus
[5] = Inhibition of bovine chymotrypsin using Suc-AAF-AMC as substrate preincubated for 30 mins followed by substrate addition measured for 20 mins by fluorescence assay; design: species or system Bos taurus
[6] = tested on: Escherichia coli; assay: Irreversible inhibition of Escherichia coli rhomboid GlpG assessed as residual activity at 10 uM preincubated for 30 mins followed by excess drug removal for 0 to 240 mins before FP-Rh addition measured after 1 hr by ABPP method
[7] = tested on: Escherichia coli; assay: Competitive inhibition of Escherichia coli rhomboid GlpG at 100 uM preincubated for 30 mins followed by FP-Rh addition measured after 1 hr by gel-based ABPP method
[8] = biological target: T2, Rhomboid protease GluP (Bacillus subtilis (strain 168)) (UniProt P54493); assay: Competitive inhibition of Bacillus subtilis rhomboid YqgP at 100 uM preincubated for 30 mins followed by FP-Rh addition measured after 1 hr by gel-based ABPP method
T2 sequence (whole entry): T1 sequence (P54493 whole entry)

[9] = tested on: Escherichia coli; assay: Competitive inhibition of Escherichia coli rhomboid GlpG assessed as residual enzyme activity at 100 uM preincubated for 30 mins followed by FP-Rh addition measured after 1 hr by gel-based ABPP method
[10] = biological target: T2, Rhomboid protease GluP (Bacillus subtilis (strain 168)); assay: Competitive inhibition of Bacillus subtilis rhomboid YqgP assessed as residual enzyme activity at 100 uM preincubated for 30 mins followed by FP-Rh addition measured after 1 hr by gel-based ABPP method
[11] = Selectivity index, ratio of IC50 for competitive inhibition of Escherichia coli rhomboid GlpG to IC50 for competitive inhibition of Bacillus subtilis rhomboid YqgP
[12] = tested on: Escherichia coli; assay: Reversible inhibition of Escherichia coli rhomboid GlpG assessed as residual activity preincubated for 30 mins followed by excess drug removal for 240 mins before FP-Rh addition measured after 1 hr by ABPP method
[13] = as §1
[14] = Selectivity index, ratio of IC50 for competitive inhibition of Bacillus subtilis rhomboid YqgP to IC50 for competitive inhibition of Escherichia coli rhomboid GlpG
[15] = tested on: Escherichia coli; assay: Reversible inhibition of Escherichia coli rhomboid GlpG assessed as residual activity at 10 uM preincubated for 30 mins followed by excess drug removal for 30 mins before FP-Rh addition measured after 1 hr by ABPP method

Compound	IC50 [1] [nM]	IC50 [2] [nM]	IC50 [4] [nM]	IC50 [5] [nM]	inhibition [7]	inhibition [8]	Activity [9] [%]	Activity [10] [%]	further results
C#CCOc1nc2cccc(Cl)c2c(=O)o1	1700	6200	1200	410	Active	Active	< 5	< 5	inhibition [3]: inactive; inhibition [6]: Active
O=c1oc(OCc2ccccc2)nc2cc3ccccc3cc12	2400	7300	< 100	< 100			< 5	< 5	
O=c1oc(OCc2ccccc2)nc2cccc(Cl)c12	1200	1600	< 100	< 100			< 5	< 5	inhibition [3]: inactive; inhibition [6]: Active
CCOc1nc2cccc(Cl)c2c(=O)o1	2200	7100	< 100	< 100			< 5	< 5	inhibition [3]: inactive; inhibition [6]: Active
Cc1cccc2nc(OCCc3ccccc3)oc(=O)c12					inactive	inactive			
Cc1ccc2nc(OCc3ccccc3)oc(=O)c2c1		4600	< 100	< 100			< 5	< 5	
C#CCCCc1nc2cccc(C)c2c(=O)o1					Active	Active			
C#CCOc1nc2cccc(C)c2c(=O)o1		2800	1100	< 100			< 5	< 5	
O=c1oc(OCCc2ccccc2)nc2cccc(Cl)c12					inactive	inactive			
C#CCCCc1nc2cccc(Cl)c2c(=O)o1					Active	Active			
O=c1oc(OCc2ccccc2)nc2c(Cl)cccc12	63000	470	< 100	< 100			< 5	< 5	Ratio IC50 [11]: 130
O=c1oc(Cl)c(Cl)c2ccccc12									Activity [12]: 50%
Cc1cccc2nc(OCc3ccccc3)oc(=O)c12	1000	15000	< 100	< 100			< 5	< 5	IC50 [13]: 8500 nM; inhibition [6]: Active; Ratio IC50 [14]: 15
O=c1oc(OCc2ccccc2)nc2ccccc12	2500	3700	< 100	< 100			< 5	< 5	inhibition [3]: Active; inhibition [15]: inactive
C#CCCOc1oc(=O)c2cc(N)ccc2c1Cl					Active	Active			
